Consider three compounds from US8680111B2 (Pfizer Inc., priority 2012, dated 2014).

The conditions of data set [1]: cc_pd bond; 12-membered ring; Pd(OAc)2/cataCXium A/KOAc; t-AmOH; 17.9 mM; 120.0 °C.
For data set [2] the following is noted: cc_pd bond, 12-membered ring, Pd(OAc)2/cataCXium A/KOAc, t-AmOH, 120.0 °C.
For data set [3], the target named is T1, human recombinant wild-type ALK kinase domain (amino acids 1093-1411) (Homo sapiens, UniProt Q9UM73).
T1 construct: ALK kinase domain (amino acids 1093-1411); made in house
Kind of data set: Wild-type ALK enzyme assay (microfluidic mobility shift). Format: biochemical. The following applies: ATP 60 μM, competitive inhibition fit, read-out: WT ALK enzyme assay (Ki).
Description: The reactions were incubated for 1 h at room temperature, stopped by the addition of 0.1 M EDTA, pH 8, and the extent of reactions (˜15-20% conversion with no inhibitor) was determined after electrophoretic separation of the fluorescently labeled peptide substrate and phosphorylated product on an LabChip EZ Reader II (Caliper Life Sciences, Hopkinton, Mass.).

The target in data set [4] is T2, human recombinant L1196M ALK kinase domain (amino acids 1093-1411) (Homo sapiens, UniProt Q9UM73, L1196M).
T2 construct: ALK kinase domain (amino acids 1093-1411); made in house
As to the kind of experiment: L1196M mutant ALK enzyme assay (microfluidic mobility shift). Format: biochemical. The following applies: ATP 60 μM, 0.5 nM enzyme, competitive inhibition fit; read-out: L1196M ALK enzyme assay (Ki).

Data set [5] deals with T3, WT EML4-ALK (NIH-3T3 EML4-ALK wt v1 cells) (Homo sapiens, UniProt Q9UM73).
T3 construct: expressed in transfected cells; the other entry of the earlier key: EML4 (Q9HC35, Echinoderm microtubule-associated protein-like 4)
Kind of data set: Cellular phospho-ALK (Tyr1604) ELISA assay for WT EML4-ALK. Format: cell-based. Conditions: 1 hour, read-out: ELISA assay for WT EML4-ALK (IC50). Background: An ELISA detects its analyte on a solid surface through an enzyme-linked reagent.
Description: (§1) Cellular Phospho-ALK (Tyr1604) ELISA Assay for EML4-ALK:
(§2) The cells were maintained at 37° C. in a 5% CO2 incubator in DMEM (Invitrogen, Carlsbad, Calif.) medium supplemented with 1% L-glutamine, 1% penicillin and streptomycin, 1 ug/ml puromycin and 10% new born calf serum (NCS) in T-75 flasks.
(§3) Cells were washed with PBS and re-suspended in DMEM medium supplemented with 0.5% NCS and 1% pen/strep and seeded into 96-well plates at density of 20,000 cells/well/100 μl and incubated in the incubator at 37° C. and 5% CO2. After 20 hours of incubation, 100 μl of assay media (DMEM) in presence of designated PF-compounds concentrations or controls (DMSO) were added into plates and incubated for 1 hour in the incubator. Media was then removed and lysis buffer, containing phosphatase inhibitors and phenylmethanesulfonyl fluoride (PMSF), was added to wells and shaken at 4° C. for 30 minutes to generate protein lysates.
(§4) A phospho-ALK (Tyr1604) rabbit antibody was coated onto the 96-well microplates. 50 μl of cell lysates were added to the antibody coated plate and incubated at room temperature for 2 hours. Following extensive washing with 0.1% Tween 20 in PBS to remove unbound materials, ALK mouse mAb was added to detect captured phospho-ALK (Tyr1604) and phospho-ALK fusion proteins. Anti-mouse IgG, HRP-linked antibody was then used to recognize the bound detection antibody. Finally, the chemiluminescent reagent was added and incubated for 10 minutes for signal development. The assay plates were read in the Envision plate reader in the luminescent mode. IC50 values were calculated by a concentration-response curve fitting using a four-parameter analytic method.

Data set [6] deals with T4, L1196M EML4-ALK (NIH-3T3 EML4-ALK v1 L1196M cells) (Homo sapiens, UniProt Q9UM73, L1196M).
T4 construct: expressed in transfected cells; the other entry of the earlier key: EML4 (Q9HC35, Echinoderm microtubule-associated protein-like 4)
Kind of data set: Cellular phospho-ALK (Tyr1604) ELISA assay for L1196M EML4-ALK. Format: cell-based. The following applies: NIH-3T3 EML4-ALK v1 L1196M cells, 1 hour, phospho-ALK (Tyr1604); read-out: ELISA assay for L1196M EML4-ALK (IC50).
Description: as §1, §2, §3, §4

The conditions of data set [7]: cc_pd bond, 12-membered ring, Pd(OAc)2/cataCXium A/KOAc, 120.0 °C.
For data set [8] the following is noted: from C[C@@H](Oc1nc(Br)cnc1N)c1ccccc1C(=O)N(C)Cc1cc(C#N)n(C)n1; cc_pd bond; Pd(OAc)2/cataCXium A, KOAc; tert-amyl alcohol; 48.7 mM; 120.0 °C; 3.0 h.

Like-named read-outs stand apart in the source and are kept apart here.

Compound `C[C@H]1Oc2cc(cnc2N)-c2c(noc2C#N)CN(C)C(=O)c2ccc(F)cc21` [Example 100, (10R)-7-amino-12-fluoro-10,16-dimethyl-15-oxo-10,15,16,17-tetrahydro-8,4-(metheno)[1,2]oxazolo[4,3-h][2,5,11]benzoxadiazacyclotetradecine-3-carbonitrile] had a ring closure, isolated yield in data set [1] of 15%. Besides, the ring closure, conversion in data set [2] (17.9 mM) came to 30%. The results for the Ki in data set [3] and in data set [4] were 3.1 nM and 24.2 nM, respectively. For the same compound, the IC50 (commonly the midpoint of a concentration-inhibition curve) amounted to 146 nM in data set [5] and 1480 nM in data set [6].

Turning to `C[C@H]1Oc2nc(cnc2N)-c2c(noc2C#N)CN(C)C(=O)c2ccc(F)cc21` [Example 99, (10R)-7-amino-12-fluoro-10,16-dimethyl-15-oxo-10,15,16,17-tetrahydro-8,4-(azeno)[1,2]oxazolo[4,3-h][2,5,11]benzoxadiazacyclotetradecine-3-carbonitrile], the ring closure, conversion in data set [2] (21.0 mM) came to 30%. The same compound registered a ring closure, yield after HPLC in data set [7] (t-AmOH, 21.0 mM) of 9%. Also, the Ki (commonly the dissociation constant of the complex between target and ligand, obtained from inhibition or displacement) in data set [3] is 3.2 nM; in data set [4] it was 11.7 nM. The IC50 in data set [5] is 52.4 nM; in data set [6] it was 531 nM.

`C[C@H]1Oc2nc(cnc2N)-c2c(nn(C)c2C#N)CN(C)C(=O)c2ccccc21` [Example 70, (10R)-7-amino-2,10,16-trimethyl-15-oxo-10,15,16,17-tetrahydro-2H-8,4-(azeno)pyrazolo[4,3-h][2,5,11]benzoxadiazacyclotetradecine-3-carbonitrile] showed a ring closure, yield after HPLC in data set [7] (from C[C@@H](Oc1nc(Br)cnc1N)c1ccccc1C(=O)N(C)Cc1cc(C#N)n(C)n1, t-amyl alcohol, 48.7 mM) of 32%. The same compound displayed a ring closure, yield of all isomers in data set [8] of 32%. Also, the figures for the Ki in data set [3] and in data set [4] were less than 0.16 nM and 0.96 nM, respectively. For the same compound, the IC50 in data set [5] worked out at 6.52 nM; in data set [6], 78.5 nM.
